Measurements taken from patent US20240368173A1, “TRICYCLIC GPR65 MODULATORS” (PATHIOS THERAPEUTICS LIMITED, priority 2021, published 2024).
pIC50: −log10 of the molar value.

biological target: human recombinant GPR65 (Homo sapiens, UniProt Q8IYL9); test: Human GPR65 cAMP HTRF antagonist assay; assay type: cell-based; details: not given
Source text: In one preferred embodiment, the compound prevents the increase in cytoplasmic cAMP levels expected following GPR65 activation at acidic pH. This prevention of cAMP accumulation in turn prevents downstream signalling through ICER, as described above. The “Human GPR65 cyclic adenosine monophosphate (cAMP) Homogeneous Time Resolved Fluorescence (HTRF) antagonist assay”, or simply “cAMP assay”, as described in the accompanying examples, can be used to measure the potency of GPR65 modulators, which is expressed as the concentration of compound required to reduce the increase in cAMP concentration upon GPR65 activation by 50% (i.e. an IC50).
Human GPR65 Cyclic Adenosine Monophosphate (cAMP) Homogeneous Time Resolved Fluorescence (HTRF) Antagonist Assay Procedure
IC50 data was obtained by the following procedure:
1321N1 human astrocytoma cells stably expressing human recombinant GPR65 (1321N1-hrGPR65 cells, EuroscreenFast) were cultured according to the vendor's instructions.
Compounds were tested for their ability to antagonise GPR65, through measuring the concentration of cytoplasmic cAMP following treatment of the cells at a pH of 7.2 to activate GPR65 signalling and addition of the compound to be tested. The extent to which the expected rise in cAMP concentration upon GPR65 activation was suppressed by the added compound is indicative of its potency. The assay was carried out according to EuroscreenFast assay Methodology as follows.
On the day of the assay, test compounds were added to 384-well, low volume, white microtiter plates by acoustic dispensing. KRH buffer (5 mM KCl, 1.25 mM MgSO4, 124 mM NaCl, 25 mM HEPES, 13.3 mM Glucose, 1.25 mM KH2PO4 and 1.45 mM CaCl2) was adjusted to pH 6.5, pH 7.6 and pH 8.4 by adding NaOH. 1321N1-hGPR65 cells were rapidly thawed and diluted in KRH, pH 7.6 prior to centrifugation at 300×g for 5 min and resuspension in assay buffer (KRH, pH 7.6, supplemented with 1 mM 3-isobutyl-1-methylxanthine (IBMX) and 200 μM ethylenediaminetetraacetic acid (EDTA)). Cells were added to assay plates at a density of 2,000 cells per well in a volume of 5 μl. Assay plates were briefly centrifuged at 100×g and then incubated at room temperature for 30 min. Cells were stimulated by the addition of 5 μL KRH, pH 6.5, to achieve an assay pH of 7.2, while control wells received 5 μl KRH, pH 8.4 to achieve an assay pH of 7.9. Assay plates were briefly centrifuged at 100×g and then incubated at room temperature for 30 min.
Accumulation of cAMP was detected by cAMP HTRF kit (Cisbio). d2-labeled cAMP and cryptate-labeled anti-cAMP antibody in Lysis and Detection Buffer (Cisbio) were added to assay plates, and the plates were incubated at room temperature for 1 h. HTRF measurements were performed using a Pherastar FSX instrument. Acceptor and donor emission signals were measured at 665 nm and 620 nm, respectively, and HTRF ratios were calculated as signal665 nm/signal620 nm×10^4. Data were normalised to high and low control values and fitted with 4-parameter logistic regression to determine hGPR65 IC50 values for the test compounds, which are shown in Table 1.

human recombinant GPR65, sequence (Q8IYL9 whole entry): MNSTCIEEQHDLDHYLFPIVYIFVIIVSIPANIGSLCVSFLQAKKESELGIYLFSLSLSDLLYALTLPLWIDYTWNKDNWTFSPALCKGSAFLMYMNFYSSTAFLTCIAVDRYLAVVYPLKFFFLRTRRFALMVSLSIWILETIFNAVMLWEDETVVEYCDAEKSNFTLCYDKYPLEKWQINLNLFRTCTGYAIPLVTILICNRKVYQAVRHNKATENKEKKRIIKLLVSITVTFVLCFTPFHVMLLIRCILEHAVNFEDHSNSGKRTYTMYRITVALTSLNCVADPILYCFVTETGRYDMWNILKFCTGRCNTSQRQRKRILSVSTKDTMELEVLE

| Compound | pIC50 |
| --- | --- |
| O=C(Nc1nnc(C2CCCCC2)s1)N1[C@H]2CC[C@@H]1c1ccnc(F)c1C2 [Compound 285, (5R,8S)—N-(5-cyclohexyl-1,3,4-thiadiazol-2-yl)-1-fluoro-6,7,8,9-tetrahydro-5H-5,8-epiminocyclohepta[c]pyridine-10-carboxamide] | > 6.30 |
| CCOc1ccc(-c2cc(F)c(NC(=O)N3[C@H]4CC[C@@H]3c3ccnc(F)c3C4)cc2Cl)cn1 [Compound 263, (5R,8S)-N-(5-Chloro-4-(6-ethoxypyridin-3-yl)-2-fluorophenyl)-1-fluoro-6,7,8,9-tetrahydro-5H-5,8-epiminocyclohepta[c]pyridine-10-carboxamide] | > 6.30 |
| O=C(Nc1cc(Cl)c(COc2ccccc2)cc1F)N1[C@H]2CC[C@@H]1c1n[nH]c(=O)cc1C2 [Compound 235, (6S,9R)-N-(5-Chloro-2-fluoro-4-(phenoxymethyl)phenyl)-3-oxo-3,5,6,7,8,9-hexahydro-2H-6,9-epiminocyclohepta[c]pyridazine-10-carboxamide] | > 6.30 |
| O=C(Nc1cc(Cl)c(-c2cnc(OCC(F)(F)F)c(F)c2)cc1F)N1[C@H]2CC[C@@H]1c1n[nH]c(=O)cc1C2 [Compound 328, (6S,9R)-N-(5-Chloro-2-fluoro-4-(5-fluoro-6-(2,2,2-trifluoroethoxy)pyridin-3-yl)phenyl)-3-oxo-3,5,6,7,8,9-hexahydro-2H-6,9-epiminocyclohepta[c]pyridazine-10-carboxamide] | > 6.30 |
| O=C(Nc1cc(Cl)c(C2CC2)cc1F)N1[C@H]2CC[C@@H]1c1c[nH]c(=O)cc1C2 [Compound 82, (6S,9R)-N-(5-Chloro-4-cyclopropyl-2-fluorophenyl)-3-oxo-3,5,6,7,8,9-hexahydro-2H-6,9-epiminocyclohepta[c]pyridine-10-carboxamide] | > 6.30 |
| O=C(Nc1cc(Cl)c(-c2ccc(OCC(F)(F)F)nc2)cc1F)N1[C@H]2CC[C@@H]1c1n[nH]c(=O)cc1C2 [Compound 215, (6S,9R)-N-(5-Chloro-2-fluoro-4-(6-(2,2,2-trifluoroethoxy)pyridin-3-yl)phenyl)-3-oxo-3,5,6,7,8,9-hexahydro-2H-6,9-epiminocyclohepta[c]pyridazine-10-carboxamide] | > 6.30 |
| O=C(Nc1cc(Cl)c(Br)cc1F)N1[C@H]2CC[C@@H]1c1n[nH]c(=O)cc1C2 [Compound 32, (6S,9R)-N-(4-Bromo-5-chloro-2-fluorophenyl)-3-oxo-3,5,6,7,8,9-hexahydro-2H-6,9-epiminocyclohepta[c]pyridazine-10-carboxamide] | > 6.30 |
| O=C(Nc1cc(F)c(-c2ccc(F)nc2)cc1F)N1[C@H]2CC[C@@H]1c1ccnc(F)c1C2 [Compound 242, (5R,8S)-N-(2,5-Difluoro-4-(6-fluoropyridin-3-yl)phenyl)-1-fluoro-6,7,8,9-tetrahydro-5H-5,8-epiminocyclohepta[c]pyridine-10-carboxamide] | > 6.30 |
| COCCNc1ncc(-c2cc(F)c(NC(=O)N3[C@H]4CC[C@@H]3c3n[nH]c(=O)cc3C4)cc2Cl)cn1 [Compound 121, (6S,9R)-N-(5-Chloro-2-fluoro-4-(2-((2-methoxyethyl)amino)pyrimidin-5-yl)phenyl)-3-oxo-3,5,6,7,8,9-hexahydro-2H-6,9-epiminocyclohepta[c]pyridazine-10-carboxamide] | > 6.30 |
| CN(C)CCOc1ccc(-c2cc(F)c(NC(=O)N3[C@H]4CC[C@@H]3c3ccnc(F)c3C4)cc2Cl)cn1 [Compound 301, (5R,8S)-N-(5-Chloro-4-(6-(2-(dimethylamino)ethoxy)pyridin-3-yl)-2-fluorophenyl)-1-fluoro-6,7,8,9-tetrahydro-5H-5,8-epiminocyclohepta[c]pyridine-10-carboxamide] | > 6.30 |
| COCCCOc1cnc(F)c2c1[C@H]1CC[C@@H](C2)N1C(=O)Nc1cc(Cl)c(Cl)cc1F [Compound 105, (5R,8S)—N-(4,5-Dichloro-2-fluorophenyl)-1-fluoro-4-(3-methoxypropoxy)-6,7,8,9-tetrahydro-5H-5,8-epiminocyclohepta[c]pyridine-10-carboxamide] | > 6.30 |
| O=C(Nc1cc(F)c(NC(=O)N2[C@H]3CC[C@@H]2c2n[nH]c(=O)cc2C3)cc1Cl)c1ccccc1 [Compound 236, (6S,9R)—N-(4-benzamido-5-chloro-2-fluorophenyl)-3-oxo-3,5,6,7,8,9-hexahydro-2H-6,9-epiminocyclohepta[c]pyridazine-10-carboxamide] | 5.30 to 6.30 |
| O=C(Nc1cc(Cl)c(-c2ccc3nonc3c2)cn1)N1[C@H]2CC[C@@H]1c1ccnc(F)c1C2 [Compound 339, (5R,8S)-N-(5-(Benzo[c][1,2,5]oxadiazol-5-yl)-4-chloropyridin-2-yl)-1-fluoro-6,7,8,9-tetrahydro-5H-5,8-epiminocyclohepta[c]pyridine-10-carboxamide] | > 6.30 |
| COc1cc(-c2cc(F)c(NC(=O)N3[C@H]4CC[C@@H]3c3c[nH]c(=O)cc3C4)cc2Cl)ccn1 [Compound 265, (6S,9R)-N-(5-Chloro-2-fluoro-4-(2-methoxypyridin-4-yl)phenyl)-3-oxo-3,5,6,7,8,9-hexahydro-2H-6,9-epiminocyclohepta[c]pyridine-10-carboxamide] | > 6.30 |
| O=C(Nc1ccc(OC(F)(F)F)c(Cl)c1)N1[C@H]2CC[C@@H]1c1n[nH]c(=O)cc1C2 [Compound 46, (6S,9R)-N-(3-Chloro-4-(trifluoromethoxy)phenyl)-3-oxo-3,5,6,7,8,9-hexahydro-2H-6,9-epiminocyclohepta[c]pyridazine-10-carboxamide] | > 6.30 |
| O=C(Nc1cc(F)c(-c2ccc(F)nc2)cc1F)N1[C@H]2CC[C@@H]1c1n[nH]c(=O)cc1C2 [Compound 244, (6S,9R)-N-(2,5-Difluoro-4-(6-fluoropyridin-3-yl)phenyl)-3-oxo-3,5,6,7,8,9-hexahydro-2H-6,9-epiminocyclohepta[c]pyridazine-10-carboxamide] | > 6.30 |

same assay, conditions: 1321N1-hrGPR65 cells, cAMP HTRF, assay pH 7.2; read-out: hGPR65 IC50 (Activity of selected compounds according to the invention)

| Compound | pIC50 |
| --- | --- |
| O=C1COc2ccc(-c3cc(F)c(NC(=O)N4[C@H]5CC[C@@H]4c4n[nH]c(=O)cc4C5)cc3Cl)cc2N1 [Compound 146, (6S,9R)-N-(5-Chloro-2-fluoro-4-(3-oxo-3,4-dihydro-2H-benzo[b][1,4]oxazin-6-yl)phenyl)-3-oxo-3,5,6,7,8,9-hexahydro-2H-6,9-epiminocyclohepta[c]pyridazine-10-carboxamide] | 5.30 to 6.30 |
| CO[C@H]1C[C@@H](Oc2ccc(NC(=O)N3C4CCC3c3n[nH]c(=O)cc3C4)cc2Cl)C1 (mixture of isomers) [Compound 36, (±)-N-(3-Chloro-4-((1s,3S)-3-methoxycyclobutoxy)phenyl)-3-oxo-3,5,6,7,8,9-hexahydro-2H-6,9-epiminocyclohepta[c]pyridazine-10-carboxamide] | < 5.30 |
| O=C(Nc1cc(Cl)c(-c2cncnc2)cc1F)N1[C@H]2CC[C@@H]1c1n[nH]c(=O)cc1C2 [Compound 137, (6S,9R)-N-(5-Chloro-2-fluoro-4-(pyrimidin-5-yl)phenyl)-3-oxo-3,5,6,7,8,9-hexahydro-2H-6,9-epiminocyclohepta[c]pyridazine-10-carboxamide] | 5.30 to 6.30 |
| CS(=O)(=O)c1cncc(-c2cc(F)c(NC(=O)N3[C@H]4CC[C@@H]3c3n[nH]c(=O)cc3C4)cc2Cl)c1 [Compound 122, (6S,9R)-N-(5-Chloro-2-fluoro-4-(5-(methylsulfonyl)pyridin-3-yl)phenyl)-3-oxo-3,5,6,7,8,9-hexahydro-2H-6,9-epiminocyclohepta[c]pyridazine-10-carboxamide] | 5.30 to 6.30 |
| COCc1cncc(-c2cc(F)c(NC(=O)N3[C@H]4CC[C@@H]3c3n[nH]c(=O)cc3C4)cc2Cl)c1 [Compound 280, (6S,9R)-N-(5-Chloro-2-fluoro-4-(5-(methoxymethyl)pyridin-3-yl)phenyl)-3-oxo-3,5,6,7,8,9-hexahydro-2H-6,9-] | 5.30 to 6.30 |
| O=C(Nc1cc(Cl)c(Cl)cc1F)N1[C@H]2CC[C@@H]1c1ccnc(OC(F)F)c1C2 [Compound 93, (5R,8S)-N-(4,5-dichloro-2-fluorophenyl)-1-(difluoromethoxy)-6,7,8,9-tetrahydro-5H-5,8-epiminocyclohepta[c]pyridine-10-carboxamide] | 5.30 to 6.30 |
